Measurements published in patent US6673938B1, “Substituted pyridine herbicides” (Syngenta Participations AG, priority 1998, dated 2004).

Assays:
[1] = test system: Monocotyledonous and dicotyledonous test plants; assay: Post-emergence herbicidal action; type: in vivo; settings: evaluated after approximately 18 days; for Post-emergence action, Ipomoea / Post-emergence action, Lolium / Post-emergence action, Setaria / Post-emergence action, Sinapis / Post-emergence action, Solanum / Post-emergence action, Stellaria: 2000 g/ha, sprayed in 4- to 6-leaf stage, nine-step scale
Summary of the method: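 Greenhouse plants sprayed at the 4- to 6-leaf stage with test substance as wettable-powder suspension or emulsion-concentrate emulsion, 2 kg or 250 g a.i./ha in 500 l water/ha. Scored after about 18 days on a nine-step scale (1=complete damage, 9=no effect).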

[2] = test system: Monocotyledonous and dicotyledonous test plants; assay: Herbicidal action before emergence of the plants (pre-emergence action); type: in vivo; settings: evaluated after 3 weeks, nine-step scale; for pre-emergence action, Cyperus / pre-emergence action, Ipomoea / pre-emergence action, Setaria / pre-emergence action, Sinapis / pre-emergence action, Solanum / pre-emergence action, Stellaria: 2000 g/ha
Method: Monocotyledonous and dicotyledonous test plants are sown in standard soil in plastic pots. Immediately after sowing, the test substances as aqueous suspensions (prepared with a 25% wettable powder (Example F3, b) in accordance with WO 97/34485) or as emulsions (prepared with a 25% emulsion concentrate (Example F1, c)) are sprayed on at a rate of 2 kg of a.i./ha or 250 g of a.i./ha (500 l of water/ha). The test plants are then grown in the greenhouse under optimal conditions. After a test period of 3 weeks, the experiment is evaluated with reference to a nine-step scale (1=complete damage, 9=no effect). Score figures of 1 to 4 (in particular 1 to 3) mean a good to very good herbicidal action.

Cc1nc(C(F)(F)F)ccc1C(=O)C1=C(O)C(C)(C)CC(C)(C)C1=O [Compound A2-B90]
2: Post-emergence action, Lolium [1] | Post-emergence action, Setaria [1] | Post-emergence action, Solanum [1] | Post-emergence action, Stellaria [1]
1: Post-emergence action, Ipomoea [1] | Post-emergence action, Sinapis [1] | pre-emergence action, Cyperus [2] | pre-emergence action, Ipomoea [2] | pre-emergence action, Setaria [2] | pre-emergence action, Sinapis [2] | pre-emergence action, Solanum [2] | pre-emergence action, Stellaria [2]

CCC1(C)CC(C)(C)C(=O)C(C(=O)c2ccc(C(F)(F)F)nc2C)=C1O (stereo not shown) [Compound A2-B91]
1: Post-emergence action, Ipomoea [1] | Post-emergence action, Sinapis [1] | pre-emergence action, Cyperus [2] | pre-emergence action, Setaria [2] | pre-emergence action, Solanum [2]
2: Post-emergence action, Lolium [1] | Post-emergence action, Setaria [1] | Post-emergence action, Solanum [1] | Post-emergence action, Stellaria [1] | pre-emergence action, Ipomoea [2] | pre-emergence action, Sinapis [2] | pre-emergence action, Stellaria [2]

Cc1nc(C(F)(F)F)ccc1C(=O)C1=C(O)C(C)(C(C)C)CC(C)(C)C1=O (stereo not shown) [Compound A2-B93]
1: Post-emergence action, Ipomoea [1] | Post-emergence action, Sinapis [1] | pre-emergence action, Solanum [2]
4: pre-emergence action, Ipomoea [2]
2: Post-emergence action, Lolium [1] | Post-emergence action, Setaria [1] | Post-emergence action, Solanum [1] | Post-emergence action, Stellaria [1] | pre-emergence action, Cyperus [2] | pre-emergence action, Setaria [2] | pre-emergence action, Sinapis [2] | pre-emergence action, Stellaria [2]

CSC1(C)CC(C)(C)C(=O)C(C(=O)c2ccc(C(F)(F)F)nc2C)=C1O (stereo not shown) [Compound A2-B95]
2: Post-emergence action, Lolium [1] | Post-emergence action, Setaria [1] | Post-emergence action, Solanum [1] | Post-emergence action, Stellaria [1] | pre-emergence action, Cyperus [2] | pre-emergence action, Setaria [2] | pre-emergence action, Sinapis [2] | pre-emergence action, Stellaria [2]
4: pre-emergence action, Ipomoea [2]
1: Post-emergence action, Ipomoea [1] | Post-emergence action, Sinapis [1] | pre-emergence action, Solanum [2]

Cc1nc(C(F)(F)F)ccc1C(=O)C1=C(O)CC(C)CC1=O (stereo not shown) [Compound A2-B133]
1: Post-emergence action, Ipomoea [1] | Post-emergence action, Sinapis [1] | pre-emergence action, Cyperus [2] | pre-emergence action, Solanum [2]
2: Post-emergence action, Lolium [1] | Post-emergence action, Setaria [1] | Post-emergence action, Solanum [1] | Post-emergence action, Stellaria [1] | pre-emergence action, Ipomoea [2] | pre-emergence action, Setaria [2] | pre-emergence action, Sinapis [2] | pre-emergence action, Stellaria [2]

Cc1nc(C(F)(F)F)ccc1C(=O)C1=C(O)C(C)C(C)CC1=O (stereo not shown) [Compound A2-B134]
2: Post-emergence action, Ipomoea [1] | Post-emergence action, Lolium [1] | Post-emergence action, Stellaria [1] | pre-emergence action, Ipomoea [2] | pre-emergence action, Sinapis [2]
1: Post-emergence action, Setaria [1] | Post-emergence action, Sinapis [1] | Post-emergence action, Solanum [1] | pre-emergence action, Cyperus [2] | pre-emergence action, Setaria [2] | pre-emergence action, Solanum [2] | pre-emergence action, Stellaria [2]

CCOC(=O)C1C(O)=C(C(=O)c2ccc(C(F)(F)F)nc2C)C(=O)CC1C (stereo not shown) [Compound A2-B145]
1: Post-emergence action: Chenop. (score, nine-step scale) ([1]; Chenop., 250 g/ha, sprayed at 4- to 6-leaf stage) | Pre-emergence action, Chenop. ([2]; Chenop., 250 g/ha)
4: Pre-emergence action, Echino. ([2]; Echino., 250 g/ha)
3: Post-emergence action: Abutilon (score, nine-step scale) ([1]; Abutilon, 250 g/ha, sprayed at 4- to 6-leaf stage) | Post-emergence action: Ipopur. (score, nine-step scale) ([1]; Ipopur., 250 g/ha, sprayed at 4- to 6-leaf stage) | Post-emergence action: Xanth. (score, nine-step scale) ([1]; Xanth., 250 g/ha, sprayed at 4- to 6-leaf stage) | Pre-emergence action, Amaranthus ([2]; Amaranthus, 250 g/ha)
2: Post-emergence action: Digitaria (score, nine-step scale) ([1]; Digitaria, 250 g/ha, sprayed at 4- to 6-leaf stage) | Post-emergence action: Echino. (score, nine-step scale) ([1]; Echino., 250 g/ha, sprayed at 4- to 6-leaf stage) | Post-emergence action: Panicum (score, nine-step scale) ([1]; Panicum, 250 g/ha, sprayed at 4- to 6-leaf stage) | Pre-emergence action, Abutilon ([2]; Abutilon, 250 g/ha) | Pre-emergence action, Digitaria ([2]; Digitaria, 250 g/ha) | Pre-emergence action, Panicum ([2]; Panicum, 250 g/ha)

Cc1nc(C(F)(F)F)ccc1C(=O)C1=C(O)C(C)(C)C(C)CC1=O (stereo not shown) [Compound A2-B156]
2: Post-emergence action, Lolium [1] | Post-emergence action, Setaria [1] | Post-emergence action, Solanum [1] | Post-emergence action, Stellaria [1] | pre-emergence action, Ipomoea [2] | pre-emergence action, Sinapis [2] | pre-emergence action, Stellaria [2]
1: Post-emergence action, Ipomoea [1] | Post-emergence action, Sinapis [1] | pre-emergence action, Cyperus [2] | pre-emergence action, Setaria [2] | pre-emergence action, Solanum [2]

Cc1nc(C(F)(F)F)ccc1C(=O)C1=C(O)C(C)(C)OC(C)(C)C1=O [Compound A2-B618]
1: Post-emergence action, Sinapis [1] | pre-emergence action, Cyperus [2] | pre-emergence action, Ipomoea [2] | pre-emergence action, Setaria [2] | pre-emergence action, Solanum [2] | pre-emergence action, Stellaria [2]
2: Post-emergence action, Ipomoea [1] | Post-emergence action, Lolium [1] | Post-emergence action, Setaria [1] | Post-emergence action, Solanum [1] | Post-emergence action, Stellaria [1] | pre-emergence action, Sinapis [2]

Cc1nc(C(F)(F)F)ccc1C(=O)C1=C(O)CC(C(C)C)CC1=O (stereo not shown) [Compound A2-B1061]
3: pre-emergence action, Cyperus [2] | pre-emergence action, Ipomoea [2]
2: Post-emergence action, Ipomoea [1] | Post-emergence action, Lolium [1] | Post-emergence action, Setaria [1] | Post-emergence action, Solanum [1] | Post-emergence action, Stellaria [1] | pre-emergence action, Setaria [2] | pre-emergence action, Sinapis [2] | pre-emergence action, Stellaria [2]
1: Post-emergence action, Sinapis [1] | pre-emergence action, Solanum [2]

Cc1nc(C(F)(F)F)ccc1C(=O)C1=C(O)CC(C)(C)CC1=O [Compound A2-B1063]
1: Post-emergence action, Sinapis [1] | pre-emergence action, Cyperus [2] | pre-emergence action, Setaria [2] | pre-emergence action, Solanum [2]
4: Post-emergence action, Setaria [1]
2: Post-emergence action, Ipomoea [1] | Post-emergence action, Lolium [1] | Post-emergence action, Solanum [1] | Post-emergence action, Stellaria [1] | pre-emergence action, Ipomoea [2] | pre-emergence action, Sinapis [2] | pre-emergence action, Stellaria [2]

COC1CCC(=O)C(C(=O)c2ccc(C(F)(F)F)nc2C)=C1O (stereo not shown) [Compound A2-B1068]
1: Post-emergence action, Ipomoea [1] | Post-emergence action, Sinapis [1] | Post-emergence action, Solanum [1] | pre-emergence action, Solanum [2]
2: Post-emergence action, Lolium [1] | Post-emergence action, Stellaria [1] | pre-emergence action, Cyperus [2] | pre-emergence action, Ipomoea [2] | pre-emergence action, Setaria [2] | pre-emergence action, Sinapis [2] | pre-emergence action, Stellaria [2]
4: Post-emergence action, Setaria [1]

COC1CC(C)C(=O)C(C(=O)c2ccc(C(F)(F)F)nc2C)=C1O (stereo not shown) [Compound A2-B1070, 3-Hydroxy-4-methoxy-6-methyl-2-(2-methyl-6-trifluoromethyl-pyridine-3-carbonyl)cyclohex-2-enone]
4: Post-emergence action, Lolium [1]
2: Post-emergence action, Ipomoea [1] | Post-emergence action, Setaria [1] | Post-emergence action, Sinapis [1] | Post-emergence action, Solanum [1] | Post-emergence action, Stellaria [1] | pre-emergence action, Cyperus [2] | pre-emergence action, Sinapis [2] | pre-emergence action, Solanum [2] | pre-emergence action, Stellaria [2]
3: pre-emergence action, Ipomoea [2] | pre-emergence action, Setaria [2]

C#CCC1CC(C)(C)C(=O)C(C(=O)c2ccc(C(F)(F)F)nc2C)=C1O (stereo not shown) [Compound A2-B1082]
1: Post-emergence action, Ipomoea [1] | Post-emergence action, Sinapis [1] | Post-emergence action, Solanum [1] | pre-emergence action, Solanum [2]
2: Post-emergence action, Lolium [1] | Post-emergence action, Setaria [1] | Post-emergence action, Stellaria [1] | pre-emergence action, Cyperus [2] | pre-emergence action, Ipomoea [2] | pre-emergence action, Setaria [2] | pre-emergence action, Sinapis [2] | pre-emergence action, Stellaria [2]
